Measured values from patent US5066658A, “Substituted hydroxyureas” (Ortho Pharmaceutical Corporation, priority 1990, dated 1991).

Key:
5-lipoxygenase = target: T1, 5-lipoxygenase (Rattus norvegicus, UniProt P12527); assay: Inhibition of 5-lipoxygenase in cell-free homogenate of rat basophilic leukemia (RBL-1) cells; assay type: biochemical; conditions: RBL-1 cell-free homogenate; for inhibition at 3 µM: read-out: Inhibition of 5-Lipoxygenase, % Inh. @ 3 μM
T1 construct: The cell-free homogenate was prepared by sonication of the cells followed by centrifugation at 40,000 xg; endogenous in cells; host or cells: RBL-1 (rat basophilic leukemia) cells, 40,000 xg supernatant of the sonicate
T1 sequence (P12527 1-673): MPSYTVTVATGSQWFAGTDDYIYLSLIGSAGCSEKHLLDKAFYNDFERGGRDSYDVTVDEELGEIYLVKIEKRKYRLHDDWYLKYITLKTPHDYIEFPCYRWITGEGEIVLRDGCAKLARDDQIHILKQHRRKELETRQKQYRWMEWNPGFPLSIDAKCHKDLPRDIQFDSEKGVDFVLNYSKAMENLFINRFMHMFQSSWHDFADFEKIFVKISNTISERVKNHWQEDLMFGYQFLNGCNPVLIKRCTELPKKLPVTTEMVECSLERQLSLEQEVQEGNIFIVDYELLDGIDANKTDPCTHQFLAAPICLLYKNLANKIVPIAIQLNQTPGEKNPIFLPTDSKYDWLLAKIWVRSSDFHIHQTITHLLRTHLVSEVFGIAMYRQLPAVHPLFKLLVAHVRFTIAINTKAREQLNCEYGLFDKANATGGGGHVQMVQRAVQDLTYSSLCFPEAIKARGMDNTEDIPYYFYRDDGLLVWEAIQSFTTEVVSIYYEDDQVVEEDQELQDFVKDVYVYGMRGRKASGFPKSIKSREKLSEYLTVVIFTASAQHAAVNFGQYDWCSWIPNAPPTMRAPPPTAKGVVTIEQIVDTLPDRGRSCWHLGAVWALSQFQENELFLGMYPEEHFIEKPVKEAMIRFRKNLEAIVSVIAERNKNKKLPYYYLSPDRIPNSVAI
Experimental: The inhibition of 5-lipoxygenase was tested in a cell-free homogenate by the procedure of B. Jakschik et al., Biochem.Biophys.Res.Comm. 95, 103 (1980). Basically, rat basophilic leukemia cells (RBL-1 cells) were maintained in culture in a suitable medium, and were collected by centrifugation prior to assay. The cell-free homogenate was prepared by sonication of the cells followed by centrifugation at 40,000 xg. The CaCl2 dependent production of lipoxygenase products from ^14 C-arachidonic acid in the 40,000 xg supernatant was monitored in the presence of buffer (or other vehicle) or drug. Products were isolated by acidification and extraction, followed by thin layer chromatography. Radioactive areas corresponding to the authentic lipoxygenase products were quantitated by liquid scintillation counting. Data was reported as the IC50, the concentration causing 50% inhibition of the generation of lipoxygenase products. The results are shown it Table I as the percent inhibition at 3 μM or the amount of compound necessary to cause 50% inhibition.

[1] = tested on: Arachidonate-Induced Ear Edema; assay: Arachidonic Acid-Induced Ear Edema Assay; assay type: in vivo; conditions: topical, mouse ear; for inhibition in vivo at 0.2 mg: 200 μg topically; for inhibition in vivo at 0.2 mg / inhibition in vivo at 0.4 mg: read-out: Inhibition of Arachidonate-Induced Ear Edema, % Inh. (μg topically); for inhibition in vivo at 0.4 mg: 400 μg topically
Experimental: The topical anti-inflammatory activity of a compound was determined by its ability to inhibit an experimentally-induced inflammation in the mouse ear. Basically, four milligrams of arachidonic acid in acetone were applied to the dorsal surface of one ear with a microliter pipette. The mice were sacrificed at various times after application of arachidonic acid (one-half to six hours). A section of each ear was removed with a 7 mm round punch and weighed on an electronic or analytical balance. The difference in weight between treated and untreated ears was determined. Compounds to be evaluated for anti-inflammatory activity can be incorporated directly into the irritant mixture or at various times prior to or after application of arachidonic acid.
The degree of anti-inflammatory activity is shown in Table I, and is expressed in terms of the percent inhibition of ear weight increase.

[2] = tested on: Arachidonate-Induced Bronchospasm (cyclooxygenase); assay: Pulmonary Mechanics Assay: arachidonate-induced bronchospasm without indomethacin (indicative of cyclooxygenase inhibition); assay type: in vivo, male Hartley guinea pigs; conditions: Cavia porcellus, guinea pig; for inhibition in vivo at 15 mg/kg: IV dosing, read-out: Inhibition of Arachidonate-Induced Bronchospasm (IV Dosing), % Inh. without Indomethacin
Experimental: (§1) The bronchodilating activity of the compounds was tested in a pulmonary mechanics assay. Basically, male Hartley guinea pigs (about 400-500 g) were anesthetized with urethane (2 g/kg, i.p.) and placed in a whole body Plethysmograph. Cannulations of a jugular vein and carotid artery were performed for compound administration and monitoring blood pressure, respectively. The trachea was cannulated for respiration at a constate volume via a miniature starling pump. A Validyne differential pressure transducer (±20 cm H2 O) sensed transpleural pressure via a 15 gauge needle inserted into the pleural cavity and a sidearm from the tracheal cannula. Tidal volume was sensed by another Validyne differential pressure transducer (±2 cm H2 O) from pressure changes inside the plethysmograph. An on-line Buxco pulmonary mechanics computer calculated air flow, dynamic lung compliance and lung resistance. The values were recorded on a print-out.
(§2) The guinea pigs were pretreated with succinyl choline (1.2 mg/kg, i.v.) to arrest spontaneous respiration. A control challenge of arachidonic acid (0.5-1.0 mg/kg, i.v.) was administered, and the animals were then dosed with the test compound by various routes. At least 10 minutes were allowed to expire between arachidonic acid challenges. A second challenge was given and compared to the control response. This comparison was indicative of cyclooxygenase inhibition. Indomethacin (10 mg/kg, i.v.) was administered immediately after the second challenge. A third challenge of a higher dose of arachidonic acid (5-10 mg/kg, i.v.) was given. This response was induced by SRS-A and compared to the responses elicited by a separate control group of animals. Activity was indicative of lipoxygenase inhibition. Propranolol (0.005 mg/kg. i.v.) may be given prior to the third challenge to enhance the response to SRS-A.
(§3) Bronchoconstriction induced by arachidonic acid with or without indomethacin was expressed as maximum percent change in dynamic lung compliance (Cdyn) and maximum percent increase in lung resistance (RL). Each guinea pig served as its own control for cyclooxygenase evaluation. The results are shown in Table I and are expressed as the percent inhibition of control.

[3] = tested on: Arachidonate-Induced Bronchospasm (lipoxygenase); assay: Pulmonary Mechanics Assay: arachidonate-induced bronchospasm with indomethacin (SRS-A response, indicative of lipoxygenase inhibition); assay type: in vivo, male Hartley guinea pigs; conditions: Cavia porcellus, guinea pig; for inhibition in vivo at 15 mg/kg: IV dosing, read-out: Inhibition of Arachidonate-Induced Bronchospasm (IV Dosing), % Inh. with Indomethacin
Experimental: as §1, §2, §3

[4] = ID dosing, read-out: Inhibition of Arachidonate-Induced Bronchospasm (ID Dosing), % Inh. without Indomethacin
[5] = ID dosing, read-out: Inhibition of Arachidonate-Induced Bronchospasm (ID Dosing), % Inh. with Indomethacin

| SMILES | inhibition at 3 µM (5-lipoxygenase) [%] | inhibition in vivo at 50 mg/kg [2, 4] [%] | inhibition in vivo at 50 mg/kg [3, 5] [%] | inhibition in vivo at 15 mg/kg [2] [%] | inhibition in vivo at 15 mg/kg [3] [%] | other results |
| --- | --- | --- | --- | --- | --- | --- |
| CN(O)C(=O)NCCc1ccc(-c2ccccc2)cc1 [Example 31] | 39 |  |  |  |  | inhibition in vivo at 0.2 mg [1]: 40% |
| CCCCCCCCCN(O)C(=O)N(C)C [Example 8, N,N-Dimethyl-N'-nonyl-N'-hydroxyurea] | 93 |  |  |  |  | inhibition in vivo at 0.2 mg [1]: 95% |
| COc1cc2c(cc1OC)CCN(C(=O)N(C)O)CC2 [Example 62, 7,8-Dimethoxy-N-hydroxy-N-methyl-1,2,4,5-tetrahydro-3H-3-benzazepine-3-carboxamide] | 0 |  |  |  |  | inhibition in vivo at 0.2 mg [1]: 35% |
| COc1ccc(CCNC(=O)N(C)O)cc1OCc1ccccc1 [Example 69, N-[2-(3-Benzyloxy-4-methoxyphenyl)ethyl]-N'-hydroxy-N'-methylurea] | 41 |  |  |  |  | inhibition in vivo at 0.2 mg [1]: 38% |
| COc1cccc(CCNC(=O)N(C)O)c1OC [Example 44, N-[2-(2,3-Dimethoxyphenyl)ethyl]-N'-hydroxy-N'-methylurea] | 33 | < 20 | 58 |  |  |  |
| CN(O)C(=O)NCCCCCCCOc1ccc(-c2ccccc2)cc1 [Example 38] | 56 | -9 | < 20 |  |  |  |
| CCCCCCCN(O)C(=O)N(C)C [Example 9, N,N-Dimethyl-N'-heptyl-N'-hydroxyurea] | 64 |  |  |  |  | Inhibition of Arachidonate-Induced Ear Edema, ED50 [1]: 55 µg |
| CCCCCCCCCCN(O)C(=O)NCC(=O)OCC [Example 3, N-(Ethoxycarbonyl)methyl-N'-decyl-N'-hydroxyurea] | 100 |  |  |  |  | inhibition in vivo at 0.4 mg [1]: 51% |
| COc1ccc(CCN(C)C(=O)N(C)O)cc1OC [Example 53, N-[2-(3,4-Dimethyoxyphenyl)ethyl]-N'-hydroxy-N,N'-dimethylurea] | 0 |  |  | 79 | 51 | inhibition in vivo at 25 mg/kg ([2]; ID dosing, 25 mg/kg, read-out: Inhibition of Arachidonate-Induced Bronchospasm (ID Dosing), % Inh. without Indomethacin): 52%; inhibition in vivo at 25 mg/kg ([3]; ID dosing, 25 mg/kg, read-out: Inhibition of Arachidonate-Induced Bronchospasm (ID Dosing), % Inh. with Indomethacin): 71% |
| C=CCOc1ccc(CCNC(=O)N(C)O)cc1OC [Example 55] | 42 | -68 | 56 | 56 | 83 |  |
| CCCCCCCCCCN1C(=O)N(O)CC1C(=O)OCC (centres unmarked) [Example 27, Ethyl 3-decyl-1-hydroxyimidazolidin-2-one-4-carboxylate] |  |  |  |  |  | IC50 (5-lipoxygenase): 1.4 µM; inhibition in vivo at 0.4 mg [1]: 13% |
| COc1cc2c(cc1OC)CC(NC(=O)N(C)O)CC2 (centres unmarked) [Example 61, N-(6,7-Dimethoxy-1,2,3,4-tetrahydro-2-naphthyl)-N'-hydroxy-N'-methylurea] | 73 |  |  | < 20 | < 20 |  |
| COc1ccc(CCCNC(=O)N(C)O)cc1OC [Example 65, N-[3-(3,4-Dimethoxyphenyl)propyl]-N'-hydroxy-N'-methylurea] | 19 | 52 | 59 | 86 | 89 |  |
| CN(O)C(=O)NCCCCCCOc1ccc(-c2ccccc2)cc1 [Example 37, N-[6-([1,1'-Biphenyl]-4-yloxy)hexyl]N'hydroxy-N'-methylurea] | 65 | -33 | -11 |  |  |  |
| CCCCCCCCN1CCN(O)C1=O [Example 24, 1-Octyl-3-hydroxyimidazolidin-2-one] |  |  |  |  |  | IC50 (5-lipoxygenase): 5.2 µM; inhibition in vivo at 0.2 mg [1]: 27% |
| CN(O)C(=O)NCCc1ccc(Cl)c(Cl)c1 [Example 50, N-[2-(3,4-Dichlorophenyl)ethyl]-N'-hydroxy-N'-methylurea] | 59 | < 20 | < 20 |  |  |  |
| COc1cc2c(cc1OC)C(CNC(=O)N(C)O)CC2 (centres unmarked) [Example 60, N-[(5,6-Dimethoxyindan-1-yl)methyl]-N'-hydroxy-N'-methylurea] | 51 |  |  | 48 | 67 |  |
| COc1ccc(CCNC(=O)N(C)O)c(OC)c1 [Example 49, N-[2-(2,4-Dimethoxyphenyl)ethyl]-N'-hydroxy-N'-methylurea] | 99 |  |  | 39 | 67 |  |
| CN(O)C(=O)NCCc1ccc2c(c1)OCO2 [Example 43, N-[2-(3,4-Methylenedioxy)phenyl)ethyl-N'-hydroxy-N'-methylurea] | 65 | < 20 | < 20 |  |  |  |
| COc1ccc([C@@H]2C[C@H]2NC(=O)N(C)O)cc1OC (relative stereo) [Example 66, N-[Trans-2-(3,4-dimethoxyphenyl)cyclopropyl]-N'-hydroxy-N'-methylurea] | 28 | 43 | 45 | 61 | 90 |  |
| COc1ccc(CCNC(=O)N(O)C(C)C)cc1OC [Example 41, N-[2-(3,4-Dimethoxyphenyl)ethyl]-N'-hydroxy-N'-(1-methylethyl)urea] | 95 | < 20 | 30 | 42 | 70 |  |
| CN(O)C(=O)NCCCCOc1ccc(-c2ccccc2)cc1 [Example 35, N-[4-([1,1'-Biphenyl]-4-yloxy)butyl]N'-hydroxy-N'-methylurea] | 79 | < 20 | 33 |  |  |  |
